Laboratory results reported in ChEMBL document CHEMBL1201862, “PubChem BioAssay data set” (2004).
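Following 48 hours of exposure in 96-well plates, responses at five concentrations were used to interpolate endpoints linearly. GI50 = concentration required for 50% inhibition of growth.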 Calls of active or inactive are those of the source. No stated cut-off is given here; in the data, active = GI50 up to about 1.1 µM and inactive = higher.

What was measured:
Test in all cases: NCI-60 cell line screen, 48 h
[1] = tested on: NCI/ADR-RES
[2] = tested on: PC-3
[3] = tested on: MDA-MB-435
[4] = tested on: SR
[5] = tested on: BT-549
[6] = tested on: M14
[7] = tested on: Hs-578T
[8] = tested on: MCF7
[9] = tested on: ACHN
[10] = tested on: HOP-62
[11] = tested on: SNB-75
[12] = tested on: SF-539
[13] = tested on: NCI-H226
[14] = tested on: RPMI-8226
[15] = tested on: HOP-92
[16] = tested on: A498
[17] = tested on: MDA-N

| Compound | GI50 [1] | GI50 [2] | GI50 [3] | GI50 [4] | GI50 [5] | GI50 [6] | GI50 [7] | GI50 [8] | GI50 [9] | GI50 [10] | GI50 [11] | GI50 [12] | GI50 [13] | GI50 [14] | GI50 [15] | GI50 [16] | GI50 [17] |
| --- | --- | --- | --- | --- | --- | --- | --- | --- | --- | --- | --- | --- | --- | --- | --- | --- | --- |
| O=C1NC(O)c2cc3ccccc3cc2O1 (stereo unspecified) | 51.4 µM (inactive) | 31.1 µM (inactive) | 51.8 µM (inactive) | 24.3 µM (inactive) | 26.4 µM (inactive) | 38.6 µM (inactive) | 37.1 µM (inactive) | 29.6 µM (inactive) | > 100 µM (inactive) | > 100 µM (inactive) | 79.6 µM (inactive) | 28 µM (inactive) | > 100 µM (inactive) | 38.5 µM (inactive) | 25.6 µM (inactive) |  |  |
| COc1ccc2oc3c(ccc[n+]3C)c(=O)c2c1 | > 100 µM (inactive) | > 100 µM (inactive) | > 100 µM (inactive) | > 100 µM (inactive) |  | > 100 µM (inactive) | > 100 µM (inactive) | > 100 µM (inactive) | > 100 µM (inactive) | > 100 µM (inactive) | > 100 µM (inactive) | > 100 µM (inactive) | > 100 µM (inactive) |  | > 100 µM (inactive) | > 100 µM (inactive) | > 100 µM (inactive) |
| CO[C@](C(=O)OC[C@H]1[C@@H](COC(C)=O)[C@@H]2O[C@H]1c1cc3c(cc12)OCO3)(c1ccccc1)C(F)(F)F |  | 19.4 µM (inactive) | 38.5 µM (inactive) | 21.2 µM (inactive) | 22.9 µM (inactive) | 35.9 µM (inactive) |  |  |  | 26.2 µM (inactive) | 20.4 µM (inactive) |  |  | 3.68 µM (inactive) | 34 µM (inactive) | 28.5 µM (inactive) | 38.3 µM (inactive) |
| c1ccc(C2=NCCN2)c(C2=NCCN2)c1 | > 100 µM (inactive) | > 100 µM (inactive) | > 100 µM (inactive) | > 100 µM (inactive) | > 100 µM (inactive) | > 100 µM (inactive) | > 100 µM (inactive) | > 100 µM (inactive) | > 100 µM (inactive) | > 100 µM (inactive) | > 100 µM (inactive) | > 100 µM (inactive) | > 100 µM (inactive) | > 100 µM (inactive) | > 100 µM (inactive) | > 100 µM (inactive) | > 100 µM (inactive) |
| COc1ccc2[nH]c(C(=O)N3CC(CCl)c4c3cc(N)c3ccccc43)cc2c1 (stereo unspecified) | < 0.01 µM (active) | < 0.01 µM (active) | 0.0118 µM (active) | < 0.01 µM (active) | < 0.0153 µM (active) | < 0.01 µM (active) |  | < 0.01 µM (active) | < 0.01 µM (active) | < 0.01 µM (active) | < 0.01 µM (active) | < 0.01 µM (active) | < 0.0133 µM (active) | 0.0122 µM (active) | < 0.018 µM (active) | 0.0116 µM (active) | 0.0112 µM (active) |
| COc1nc(Cl)nc(N[C@H](C)c2c3ccccc3cc3ccccc23)n1 | 14.2 µM (inactive) | 14.9 µM (inactive) | 4.31 µM (inactive) |  | 18 µM (inactive) |  | 7.69 µM (inactive) | 14.2 µM (inactive) | 17.8 µM (inactive) | 14.9 µM (inactive) | 21.8 µM (inactive) | 17.8 µM (inactive) | 13.1 µM (inactive) | 5.3 µM (inactive) | 18.6 µM (inactive) | < 0.01 µM (active) | 2.71 µM (inactive) |
| Cc1cccc2sc(-c3ccc(O)cc3)nc12 | 19.3 µM (inactive) | 17.5 µM (inactive) | 11 µM (inactive) | 22 µM (inactive) | 11.8 µM (inactive) | 15.2 µM (inactive) |  | 12.2 µM (inactive) | 16.5 µM (inactive) |  | 12.6 µM (inactive) | 21.5 µM (inactive) | 14.8 µM (inactive) | 20.9 µM (inactive) |  | 3.15 µM (inactive) | 3.97 µM (inactive) |
| CS(=O)(=O)c1ccc2nc(-c3ccc(O)cc3)sc2c1 | 13.8 µM (inactive) | 17.5 µM (inactive) | 18 µM (inactive) | 10.1 µM (inactive) | 16.4 µM (inactive) | 21.6 µM (inactive) |  | 17.5 µM (inactive) | 17.9 µM (inactive) |  |  | 11 µM (inactive) | 18.5 µM (inactive) | 15.7 µM (inactive) |  | 16.4 µM (inactive) | 17.7 µM (inactive) |
| COc1ccc2c(=O)c(O)c(-c3ccc(OC)c(OC)c3)oc2c1 | 2.23 µM (inactive) | 9.38 µM (inactive) | 4.51 µM (inactive) | 4.08 µM (inactive) |  | 5.45 µM (inactive) |  | 3.74 µM (inactive) | 3.54 µM (inactive) | 3.98 µM (inactive) |  |  |  | 4.09 µM (inactive) | 4.18 µM (inactive) | 4.97 µM (inactive) | > 100 µM (inactive) |
| O=C(Nc1ccc(I)cc1C(=O)NCCO)c1cccs1 | > 100 µM (inactive) | > 100 µM (inactive) | > 100 µM (inactive) | 49.7 µM (inactive) | > 100 µM (inactive) | > 100 µM (inactive) |  | > 100 µM (inactive) | > 100 µM (inactive) | > 100 µM (inactive) |  | > 100 µM (inactive) | > 100 µM (inactive) | 53.5 µM (inactive) |  |  |  |
| O=C1CN2Cc3cc(N4CCOCC4)ccc3N=C2N1 | 31.3 µM (inactive) | 31.4 µM (inactive) | 22.9 µM (inactive) | 66.1 µM (inactive) | > 100 µM (inactive) | 33 µM (inactive) | 23.8 µM (inactive) | 60.8 µM (inactive) |  | 47.1 µM (inactive) | 31.5 µM (inactive) |  | 44.6 µM (inactive) | 67 µM (inactive) | > 100 µM (inactive) | 91 µM (inactive) |  |
| O=c1cnn(C/C=C/CP(=O)(O)O)c(=O)[nH]1 | > 100 µM (inactive) | > 100 µM (inactive) | > 100 µM (inactive) | > 100 µM (inactive) | > 100 µM (inactive) | > 100 µM (inactive) | > 100 µM (inactive) | > 100 µM (inactive) | 97.1 µM (inactive) | > 100 µM (inactive) | > 100 µM (inactive) | > 100 µM (inactive) | > 100 µM (inactive) | > 100 µM (inactive) | > 100 µM (inactive) | > 100 µM (inactive) | > 100 µM (inactive) |
| COc1cc(CN(C)N2C(=O)c3cccc4cc([N+](=O)[O-])cc(c34)C2=O)cc(OC)c1OC | > 100 µM (inactive) | > 100 µM (inactive) | > 100 µM (inactive) | > 100 µM (inactive) | > 100 µM (inactive) | > 100 µM (inactive) | 44.1 µM (inactive) | > 100 µM (inactive) |  | 16.7 µM (inactive) | 25.2 µM (inactive) |  | 58.1 µM (inactive) | > 100 µM (inactive) | > 100 µM (inactive) | > 100 µM (inactive) | > 100 µM (inactive) |
| COC1=CC(=O)c2c(c(COC(C)=O)cn2C)C1=O | 0.061 µM (active) | 0.309 µM (active) | 0.13 µM (active) | 0.211 µM (active) | 0.0208 µM (active) | 0.0632 µM (active) |  | 0.184 µM (active) | 0.0306 µM (active) |  | 0.308 µM (active) | 0.138 µM (active) | 0.137 µM (active) | 0.211 µM (active) | 0.291 µM (active) | 0.244 µM (active) | 0.0942 µM (active) |
